In data set [1] the test system is Til-1 murine lymphocyte cells. In words: Mitigation of radiation-induced apoptosis in vitro: viability of irradiated Til-1 cells (ATPlite) screen. In kind it is cell-based. The note with it: Mus musculus, light or radiation study, added 1 hour after 2 Gy, viability 24 h after radiation, relative to control irradiated value (100%), read-out: In Vitro (Mitigation cell viability %). As for the experimental part: The ability of compounds from Example 1 to mitigate radiation-induced apoptosis in vitro relative to control values (100%) is shown in FIG. 1. Briefly, 100,000 small-molecules were screened at 10 μM final concentration in 1% dimethylsulfoxide (DMSO) using the viability of a murine lymphocyte line as a readout (Mitigation cell viability %). Ten thousand Til-1 murine lymphocyte cells were dispensed into each well of 384-well plates using a Multidrop 384 (Thermo Scientific, Waltham, Mass.) The Til-1 cells were irradiated at the dose of 2 Gy. After 1 hour, the small-molecules were added. Twenty-four hours after the radiation, cell viability was assayed by luminesce-based measurement of ATP production (ATPlite, Perkin-Elmer, Waltham, Mass.) with a SpectraMax M5 microplate reader (Molecular Devices, Sunnyvale, Calif.). The Z′ factor for the assay was >0.5. See Zhang, J. H., Chung, T. D., Oldenburg, K. R. “A Simple Statistical Parameter for Use in Evaluation and Validation of High Throughput Screening Assays,” J Biomol Screen 4:67, 1999. A positive readout was >130% of the control irradiated value.

The next data set is described as follows: Solubility. Type of data set: physicochemical.
The test system of another data set is TNF-α production. In words: TNF-α production by LPS-stimulated peritoneal macrophages (ELISA). In kind it is cell-based, murine. The note with it: added to stimulated peritoneal macrophages 1 hr after LPS, supernatants at 24 hrs, ELISA. The method, then: NPSPs were tested for their anti-inflammatory ability using murine macrophages. […] Briefly, peritoneal macrophages (PMs) were induced by intraperitoneal, injection of 150 μg MIS416 (Innate Immunotherapeutics, NZ) and harvested on day 4 by peritoneal wash out with PBS. Culture supernatants were harvested at 24 hrs and cytokines tested by ELISA (BD Biosciences, SD).

The test system of another data set is TNF-α mRNA. In words: Cytokine mRNA expression in LPS-stimulated bone marrow-derived macrophages (qPCR). In kind it is cell-based, murine. As to conditions: added to bone marrow-derived macrophages 1 hr after LPS, RT-PCR. As for the experimental part: Additionally, bone marrow-derived macrophages (BMDMs) were derived by 7 days culture of marrow cells in medium containing 10% FBS and CSF-1 conditioned medium. The serum concentration was reduced to 2% FBS 16 h before stimulation with LPS for 30 min, treatment with drug and incubation for another 3.5 h (4 h total with LPS). Total cellular RNA was isolated by trizol and cDNA synthesized using iScript from BioRad. Gene expression was measured by qPCR and analyzed using the standard curve method, normalized to L32.
In general terms: In qPCR the cycle at which signal appears reflects the starting amount.

In data set [2] the test system is C3Hf/Kam and C57B16/J mice. In words: Animal Whole Body Irradiation (WBI) assay, mitigation of lethality. Type of data set: in vivo. As for the experimental part:
Briefly, Animal Whole Body Irradiation (WBI) Assays were conducted with C3Hf/Kam and C57B16/J mice. The mice were bred and maintained in a strict gnotobiotic environment in the American Association of Laboratory Animal Care-Accredited Animal Facilities of Department of Radiation Oncology, UCLA. The Animal Care and Use Committee approved all experiments, which were performed in accordance with all local and national guidelines for the care and use of animals. Mice, 9-12 weeks old, were given WBI using a Gamma cell 40 irradiator (Cs137 source; Atomic Energy of Canada, Ltd.) at a dose rate of […]. Mice were monitored for at least 30 days and defined criteria for humane euthanasia was used as an endpoint.
Compounds were typically dissolved in 15 μL DMSO and suspended in 1 mL of 1% Cremphor EL in water for administration in 0.2 mL volumes. […] All mice, including controls, received the same diluent as the experimental groups. The chosen compounds were administered to the mice 5 times at 24 h intervals, starting 24 hours after WBI at LD70/30 (7.725 Gy for the C3H strain) doses. Similar data were obtained with a single dose and at 48 hours after radiation exposure in both mouse strains. Both subcutaneous and oral routes were effective. The compounds provided greatly elevated animals survival level as compared to control group.
Dose response experiments were executed in a manner similar to the WBI Assay described in Example 3. […] Both Compound 2 (53555.12) and Compound 3 (5346360) were effective in C57Bl/6 female mice in this case mitigating against LD70/30 doses of 8.509 Gy due to the relative radioresistance of this strain relative to C3Hs. […] When given orally by gavage, Compound 2 (535551.2) in 5 daily doses starting at 24 hours post-WBI was effective at 5 mg/kg in both C3H and C57Bl/6 strains, but not at 25 mg/kg.
Probit analyses of the effect of varying the radiation dose with Compound 2 (5355512) (5 mg/kg), and Compound 3 (5346360) (5 mg/kg), or 5 (5116319) (75 mg/kg) given subcutaneously for 5 days starting 24 hours after WBI, is shown in FIG. 6, with 95% confidence limits shown for LD50 values. The dose-response curves are steep with the dose modifying factors varying with the level of effect and drug, but were in the range 1.04-1.09. Such factors have to be considered against the level of the control and the reason for lethality. In this case, hematological insufficiency and not infection is the cause of death and as a result the radioresistance of the C3H strain is relatively high.
Compounds P1, P2, and P3, analogs of Compound 2 (5355512), were synthesized according to standard protocols. […] The analogs were injected subcutaneously 5 times over 5 clays at 5 mg/kg. Compound P2 elicited 100% survival after 30 days.

Data set [3] is described as follows: Breakdown products identified in vivo by mass spectrometry. As to conditions: analog of Compound 2.
The mark [4] stands for this setting: injected subcutaneously 5 times over 5 days at 5 mg/kg.

We go through seven compounds from patent US9840483B2, “Radiomitigating pharmaceutical formulations” (The Regents of the University of California, priority 2013, dated 2017).

Values after ≈ are worked out from the molar mass of the structure shown.

Consider `O=[N+]([O-])c1ccc(S(=O)(=O)N2CCN(C/C=C/c3ccccc3)CC2)cc1` [Compound 4, 1-[(4-nitrobenzene) Sulfonyl]-4-[(2E)-3-phenylprop-2-en-1-yl]piperazine], for which the viability at 10 µM in data set [1] came to 163%. The amount in solution in “Solubility” (solubility) came to 20.4 µM (≈ 7.9 µg/mL).
`CCN(CC)S(=O)(=O)c1ccc([N+](=O)[O-])cc1` [Compound 5, N,N-diethyl-4-nitrophenyl-1-sulfonamide]: the viability at 10 µM in data set [1] worked out at 161%. Moreover, the concentration in solution in “Solubility” (solubility) was 513 µM (≈ 132 µg/mL). Besides, the TNF-α production result in the data set on TNF-α production was “able to inhibit TNF-α production”.
`O=[N+]([O-])c1ccc(S(=O)(=O)N2CCN(c3cccc(Cl)c3)CC2)cc1` [Compound 3]: the viability at 10 µM in data set [1] stood at 174%. Moreover, the “Expression of TNF-α mRNA and other cytokines” value with TNF-α mRNA was “inhibit expression of TNF-α mRNA, and other cytokines”. This compound also displayed a solubility in “Solubility” of 6.5 µM (≈ 2.48 µg/mL). In addition, the “Mitigation of WBI lethality at 5 mg/kg” value in data set [2] (5 mg/kg injected subcutaneously) is on record as “effective”. Also, the “Most effective dose in dose response” value in data set [2] (C3H male mice, compared with 1, 2, 10, 40, or 75 mg/kg) came out at 5 mg/kg. For the same compound, the “Mitigation of WBI lethality in C57Bl/6 female mice” value in data set [2] (C57Bl/6 female mice, LD70/30 dose 8.509 Gy) is given as “effective”. In addition, in data set [2] (lowest dosage 5 mg/kg subcutaneously, superior to 40 and 75 mg/kg), the “Survivors at day 30” value is 100%. In addition, in data set [2] (orally by gavage, 5 daily doses starting 24 hours post-WBI, 5 mg/kg, C3H and C57Bl/6 strains), the “Mitigation of WBI lethality, oral gavage 5 mg/kg” value was “inactive”. In data set [2] (orally by gavage, 5 daily doses starting 24 hours post-WBI, 25 mg/kg, C3H and C57Bl/6 strains), the “Mitigation of WBI lethality, oral gavage 25 mg/kg” value was “inactive”. In data set [2] (single dose increased to 25 mg/kg, 24 hours after WBI), the “Effect of increasing the single dose” value is recorded as “did not improve efficacy”. In data set [2] (single dose of 5 mg/kg given 24 hours after WBI), the “Mitigation of WBI lethality, single dose” value is recorded as “effective”. In the data set on TNF-α production, the TNF-α production result is listed as “inhibit TNF-α production”.
As for `O=[N+]([O-])c1ccc(S(=O)(=O)N2CCN(c3ccc(F)cc3)CC2)cc1` [Compound 1, 1-(4-fluorophenyl)-4-[(4-nitrobenzene)sulfonyl]piperazine], the viability at 10 µM in data set [1] came out at 188%. In “Solubility”, this compound gave a solubility of 26.6 µM (≈ 9.72 µg/mL).
Turning to `NCCNS(=O)(=O)c1ccc([N+](=O)[O-])cc1` [Compound P2], in the data set “Solubility”, the Solubility in water entry is reported as “soluble in water”. Also, the “Survival after 30 days” value in data set [2] (setting [4]) came out at 100%.
On to `O=[N+]([O-])c1ccc(S(=O)(=O)N2CCNCC2)cc1` [Compound P1], for which the Breakdown product identification result in data set [3] is “natural breakdown product identified in vivo”. In addition, the Solubility in water entry in the data set “Solubility” is on record as “soluble in water”. Besides, in data set [2] (setting [4]), the “Mitigation of WBI lethality by analogs” value is given as “effective”.
With `NCCCCCCCCNS(=O)(=O)c1ccc([N+](=O)[O-])cc1` [Compound P3], in the data set “Solubility”, the Solubility in water result is “soluble in water”.

In general, viability refers to a read-out of living cells in per cent, often relative to untreated cells. Broadly, the solubility is the concentration that dissolves in the medium under given conditions. A higher solubility goes with much dissolved substance.
